{"source": "paper PMC3192848", "about": "(PLoS Pathogens, 2011)", "data": [{"molecular_target": "T1, EtMIC3-MAR1b (thioredoxin-His fusion, microarray) (Eimeria tenella, UniProt B6VCV4)", "T1 construct": "gene mic3", "type": "binding", "settings": "lipid-linked probe immobilised at 5 fmol/spot; 40 µg/ml protein precomplexed with anti-His antibodies; ambient temperature", "values": [{"molecule": "GT1b [compound 109]", "Fluorescence signal intensities / EtMIC3-MAR1b": "8,121 fluorescence units"}, {"molecule": "NeuAcα-3Galβ-3GlcNAcβ-3Galβ-4Glcß-C30 [compound 38]", "Fluorescence signal intensities / EtMIC3-MAR1b": "5,423 fluorescence units"}, {"molecule": "NeuAcα-6Galβ-4GlcNAcβ-3Galβ-4Glc-DH [compound 79]", "Fluorescence signal intensities / EtMIC3-MAR1b": "5,570 fluorescence units"}]}, {"molecular_target": "T2, TgMIC1-MARR (Toxoplasma gondii, UniProt O00834)", "T2 construct": "gene MIC1", "T2 sequence (O00834 17-262)": "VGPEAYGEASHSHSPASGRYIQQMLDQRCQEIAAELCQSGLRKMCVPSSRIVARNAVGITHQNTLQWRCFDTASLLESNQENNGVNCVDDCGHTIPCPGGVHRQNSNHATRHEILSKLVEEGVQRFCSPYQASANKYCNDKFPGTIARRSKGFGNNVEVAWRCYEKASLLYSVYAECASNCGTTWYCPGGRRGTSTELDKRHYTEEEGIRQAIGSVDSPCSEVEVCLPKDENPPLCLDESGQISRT", "type": "binding", "settings": "lipid-linked probe immobilised at 5 fmol/spot; 40 µg/ml protein precomplexed with anti-His antibodies; ambient temperature", "values": [{"molecule": "NeuAcα-3Galß-4Glcß-Cer [compound 59]", "Fluorescence signal intensities / TgMIC1-MARR": "4,327 fluorescence units"}, {"molecule": "NeuAcα-3Galβ-3GlcNAcβ-3Galβ-4Glcß-C30 [compound 38]", "Fluorescence signal intensities / TgMIC1-MARR": "11,580 fluorescence units"}, {"molecule": "NeuGcα-3Galß-4Glcß-Cer [compound 60]", "Fluorescence signal intensities / TgMIC1-MARR": "12,526 fluorescence units"}, {"molecule": "NeuGcα-3Galβ-3GlcNAcβ-3Galβ-4Glcß-C30 [compound 39]", "Fluorescence signal intensities / TgMIC1-MARR": "11,075 fluorescence units"}, {"molecule": "NeuGcα-6GalNAc-AO [compound 88]", "Fluorescence signal intensities / TgMIC1-MARR": "13,982 fluorescence units"}]}, {"molecular_target": "T3, EtMIC3-MAR1b (NMR construct) (Eimeria tenella, UniProt B6VCV4)", "T3 construct": "gene mic3", "type": "binding", "settings": "phosphate buffer pH 5.5; sialic acid contacts L175, Y178 and HLT motif", "values": [{"molecule": "CC(=O)N[C@H]1[C@H]([C@H](O)[C@H](O)CO)O[C@@](O[C@H]2[C@@H](O)[C@@H](CO)O[C@@H](O[C@H]3[C@H](O)[C@@H](NC(C)=O)C(O)O[C@@H]3CO)[C@@H]2O)(C(=O)O)C[C@@H]1O", "note": "(stereo partly drawn) [Siaα2–3Galβ1–4GlcNAc]", "isotope-filtered NMR NOESY; HADDOCK structure from 9 intermolecular NOEs": "intermolecular NOEs"}]}]}
